Laboratory results as given in patent publication US12655116B2, “Substituted isophthalic acid diamides” (Bayer Aktiengesellschaft, priority 2020, dated 2026).

Tests used:
[1] = test system: ALOMY; experiment: Pre-emergence herbicidal action against ALOMY; format: in vivo, Alopecurus myosuroides; conditions: Alopecurus myosuroides, 504 h, pre-emergence; for pest or weed control at 80 g/ha: scored visually after 3 weeks vs untreated controls (100% = plants have died, 0% = like control plants)
Method in brief: (§1)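 Seeds sown in sandy loam, soil-covered; compound sprayed on soil surface pre-emergence. Application: WP/EC, 600–800 l/ha, 0.2% wetting agent. Readout: visual % damage at 3 weeks.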

[2] = test system: VIOTR; experiment: Pre-emergence herbicidal action against VIOTR; format: in vivo, Viola tricolor; conditions: Viola tricolor, 504 h; for pest or weed control at 20 g/ha: dosage 20 g/ha; for pest or weed control at 80 g/ha: dosage 80 g/ha; for pest or weed control at 320 g/ha: dosage 320 g/ha
Method in brief: as §1

[3] = test system: SETVI; experiment: Post-emergence herbicidal action against SETVI; format: in vivo, Setaria viridis; conditions: Setaria viridis, 504 h; for pest or weed control at 20 g/ha: dosage 20 g/ha; for pest or weed control at 80 g/ha: dosage 80 g/ha
Method in brief: (§2)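 Sandy loam, greenhouse; treatment 2–3 weeks after sowing, one-leaf stage. Aqueous suspension or emulsion from WP/EC sprayed on foliage (600–800 l/ha, 0.2% wetting agent). Readout: visual % action, ~3 weeks.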

[4] = test system: ABUTH; experiment: Post-emergence herbicidal action against ABUTH; format: in vivo, Abutilon theophrasti; conditions: Abutilon theophrasti, 504 h, visual assessment about 3 weeks after treatment vs untreated controls; for pest or weed control at 5 g/ha: dosage 5 g/ha; for pest or weed control at 20 g/ha: dosage 20 g/ha; for pest or weed control at 80 g/ha: dosage 80 g/ha
Method in brief: as §2

[5] = test system: ABUTH; experiment: Pre-emergence herbicidal action against ABUTH; format: in vivo, Abutilon theophrasti; conditions: Abutilon theophrasti, 504 h; for pest or weed control at 80 g/ha: scored visually after 3 weeks vs untreated controls (100% = plants have died, 0% = like control plants); for pest or weed control at 320 g/ha: Dosage: 320 g/ha, scored visually after 3 weeks; for pest or weed control at 320 g/ha / pest or weed control at 20 g/ha: 100% = plants have died, 0% = like control plants; for pest or weed control at 20 g/ha: dosage 20 g/ha, scored visually after 3 weeks vs untreated controls, read-out: Pre-emergence action against ABUTH (herbicidal activity in percent)
Method in brief: as §1

[6] = test system: SETVI; experiment: Pre-emergence herbicidal action against SETVI; format: in vivo, Setaria viridis; conditions: Setaria viridis, 504 h; for pest or weed control at 80 g/ha: dosage 80 g/ha; for pest or weed control at 320 g/ha: dosage 320 g/ha
Method in brief: as §1

[7] = test system: AMARE; experiment: Post-emergence herbicidal action against AMARE; format: in vivo, Amaranthus retroflexus; conditions: Amaranthus retroflexus, 504 h, visual assessment about 3 weeks after treatment, 100% = plants have died, 0% = like control plants
Method in brief: as §2

[8] = test system: POLCO; experiment: Pre-emergence herbicidal action against POLCO; format: in vivo, Polygonum convolvulus; conditions: Fallopia convolvulus, 504 h; for pest or weed control at 80 g/ha: dosage 80 g/ha; for pest or weed control at 320 g/ha: dosage 320 g/ha
Method in brief: as §1

[9] = test system: LOLRI; experiment: Post-emergence herbicidal action against LOLRI; format: in vivo, Lolium rigidum; conditions: Lolium rigidum, 504 h; for pest or weed control at 80 g/ha: dosage 80 g/ha
Method in brief: as §2

[10] = test system: POLCO; experiment: Post-emergence herbicidal action against POLCO; format: in vivo, Polygonum convolvulus; conditions: Fallopia convolvulus, 504 h, dosage 80 g/ha
Method in brief: as §2

[11] = test system: PHBPU; experiment: Post-emergence herbicidal action against PHBPU; format: in vivo, Pharbitis purpurea; conditions: Ipomoea purpurea, 504 h; for pest or weed control at 20 g/ha: dosage 20 g/ha; for pest or weed control at 80 g/ha: dosage 80 g/ha
Method in brief: as §2

[12] = test system: ECHCG; experiment: Pre-emergence herbicidal action against ECHCG; format: in vivo, Echinochloa crus-galli; conditions: Echinochloa crus-galli, 504 h
Method in brief: as §1

[13] = test system: VERPE; experiment: Pre-emergence herbicidal action against VERPE; format: in vivo, Veronica persica; conditions: Veronica persica, 504 h, dosage 320 g/ha
Method in brief: as §1

[14] = test system: STEME; experiment: Post-emergence herbicidal action against STEME; format: in vivo, Stellaria media; conditions: Stellaria media, 504 h; for pest or weed control at 5 g/ha: dosage 5 g/ha
Method in brief: as §2

[15] = test system: HORMU; experiment: Pre-emergence herbicidal action against HORMU; format: in vivo, Hordeum murinum; conditions: Hordeum murinum, 504 h, pre-emergence
Method in brief: as §1

[16] = test system: MATIN; experiment: Pre-emergence herbicidal action against MATIN; format: in vivo, Matricaria inodora; conditions: Tripleurospermum inodorum, 504 h; for pest or weed control at 20 g/ha: dosage 20 g/ha; for pest or weed control at 80 g/ha: dosage 80 g/ha; for pest or weed control at 320 g/ha: dosage 320 g/ha
Method in brief: as §1

[17] = test system: VIOTR; experiment: Post-emergence herbicidal action against VIOTR; format: in vivo, Viola tricolor; conditions: Viola tricolor, 504 h
Method in brief: as §2

[18] = test system: STEME; experiment: Pre-emergence herbicidal action against STEME; format: in vivo, Stellaria media; conditions: Stellaria media, 504 h; for pest or weed control at 20 g/ha: dosage 20 g/ha; for pest or weed control at 80 g/ha: dosage 80 g/ha; for pest or weed control at 320 g/ha: dosage 320 g/ha
Method in brief: as §1

[19] = test system: LOLRI; experiment: Pre-emergence herbicidal action against LOLRI; format: in vivo, Lolium rigidum; conditions: Lolium rigidum, 504 h, 320 g/ha
Method in brief: as §1

[20] = test system: AVEFA; experiment: Pre-emergence herbicidal action against AVEFA; format: in vivo, Avena fatua; conditions: Avena fatua, 504 h, pre-emergence
Method in brief: as §1

[21] = test system: HORMU; experiment: Post-emergence herbicidal action against HORMU; format: in vivo, Hordeum murinum; conditions: Hordeum murinum, 504 h; for pest or weed control at 20 g/ha: dosage 20 g/ha; for pest or weed control at 80 g/ha: dosage 80 g/ha
Method in brief: as §2

[22] = test system: VERPE; experiment: Post-emergence herbicidal action against VERPE; format: in vivo, Veronica persica; conditions: Veronica persica, 504 h
Method in brief: as §2

[23] = test system: AMARE; experiment: Pre-emergence herbicidal action against AMARE; format: in vivo, Amaranthus retroflexus; conditions: Amaranthus retroflexus, 504 h, 100% = plants have died, 0% = like control plants; for pest or weed control at 20 g/ha / pest or weed control at 80 g/ha: scored visually after 3 weeks vs untreated controls; for pest or weed control at 320 g/ha: scored visually after 3 weeks
Method in brief: as §1

[24] = 20 g/ha, scored visually after 3 weeks, 100% = plants have died, 0% = like control plants
[25] = scored visually after 3 weeks, 100% = plants have died, 0% = like control plants

SMILES: CCn1nnnc1NC(=O)c1ccc(C(F)(F)F)c(C(=O)NC)c1Cl [Example 2-129]
- pest or weed control at 80 g/ha [1]: 100%
- pest or weed control at 20 g/ha [1, 24]: 90%
- pest or weed control at 320 g/ha [1, 25]: 100%
- pest or weed control at 20 g/ha [2]: 100%
- pest or weed control at 80 g/ha [2]: 100%
- pest or weed control at 320 g/ha [2]: 100%
- pest or weed control at 5 g/ha ([3]; dosage 5 g/ha): 100%
- pest or weed control at 20 g/ha [3]: 100%
- pest or weed control at 80 g/ha [3]: 100%
- pest or weed control at 5 g/ha [4]: 100%
- pest or weed control at 20 g/ha [4]: 100%
- pest or weed control at 80 g/ha [4]: 100%
- pest or weed control at 80 g/ha [5]: 100%
- pest or weed control at 320 g/ha [5]: 100%
- pest or weed control at 20 g/ha [5]: 100%
- pest or weed control at 20 g/ha ([6]; dosage 20 g/ha): 100%
- pest or weed control at 80 g/ha [6]: 100%
- pest or weed control at 320 g/ha [6]: 100%
- pest or weed control at 20 g/ha [7]: 100%
- pest or weed control at 80 g/ha [7]: 100%
- pest or weed control at 20 g/ha ([8]; dosage 20 g/ha): 100%
- pest or weed control at 80 g/ha [8]: 100%
- pest or weed control at 320 g/ha [8]: 100%
- pest or weed control at 20 g/ha ([9]; dosage 20 g/ha): 100%
- pest or weed control at 80 g/ha [9]: 100%
- pest or weed control at 80 g/ha [10]: 100%
- pest or weed control at 20 g/ha [11]: 100%
- pest or weed control at 80 g/ha [11]: 100%
- pest or weed control at 80 g/ha [12]: 100%
- pest or weed control at 320 g/ha [12]: 100%
- pest or weed control at 320 g/ha [13]: 100%
- pest or weed control at 20 g/ha [14]: 100%
- pest or weed control at 80 g/ha [14]: 100%
- pest or weed control at 5 g/ha [14]: 100%
- pest or weed control at 80 g/ha [15]: 90%
- pest or weed control at 320 g/ha [15]: 100%
- pest or weed control at 20 g/ha [16]: 100%
- pest or weed control at 80 g/ha [16]: 100%
- pest or weed control at 320 g/ha [16]: 100%
- pest or weed control at 5 g/ha [17]: 80%
- pest or weed control at 20 g/ha [17]: 100%
- pest or weed control at 80 g/ha [17]: 100%
- pest or weed control at 20 g/ha [18]: 80%
- pest or weed control at 80 g/ha [18]: 80%
- pest or weed control at 320 g/ha [18]: 100%
- pest or weed control at 320 g/ha [19]: 100%
- pest or weed control at 80 g/ha [20]: 100%
- pest or weed control at 20 g/ha [20, 24]: 100%
- pest or weed control at 320 g/ha [20, 25]: 100%
- pest or weed control at 5 g/ha ([21]; dosage 5 g/ha): 80%
- pest or weed control at 20 g/ha [21]: 90%
- pest or weed control at 80 g/ha [21]: 100%
- pest or weed control at 20 g/ha ([22]; 20 g/ha): 80%
- pest or weed control at 80 g/ha [22]: 90%
- pest or weed control at 20 g/ha [23]: 100%
- pest or weed control at 80 g/ha [23]: 100%
- pest or weed control at 320 g/ha [23]: 100%

SMILES: CCCn1nnnc1NC(=O)c1ccc(C(F)(F)F)c(C(=O)NC)c1Cl [Example 3-129]
- pest or weed control at 80 g/ha [1]: 80%
- pest or weed control at 320 g/ha [1, 25]: 100%
- pest or weed control at 20 g/ha [2]: 100%
- pest or weed control at 80 g/ha [2]: 100%
- pest or weed control at 320 g/ha [2]: 100%
- pest or weed control at 20 g/ha [3]: 100%
- pest or weed control at 80 g/ha [3]: 100%
- pest or weed control at 5 g/ha [4]: 100%
- pest or weed control at 20 g/ha [4]: 100%
- pest or weed control at 80 g/ha [4]: 100%
- pest or weed control at 80 g/ha [5]: 100%
- pest or weed control at 320 g/ha [5]: 100%
- pest or weed control at 20 g/ha [5]: 100%
- pest or weed control at 80 g/ha [6]: 90%
- pest or weed control at 320 g/ha [6]: 100%
- pest or weed control at 20 g/ha [7]: 100%
- pest or weed control at 80 g/ha [7]: 100%
- pest or weed control at 80 g/ha [8]: 80%
- pest or weed control at 320 g/ha [8]: 100%
- pest or weed control at 80 g/ha [9]: 80%
- pest or weed control at 80 g/ha [10]: 90%
- pest or weed control at 20 g/ha [11]: 90%
- pest or weed control at 80 g/ha [11]: 100%
- pest or weed control at 80 g/ha [12]: 80%
- pest or weed control at 320 g/ha [12]: 100%
- pest or weed control at 320 g/ha [13]: 100%
- pest or weed control at 20 g/ha [14]: 100%
- pest or weed control at 80 g/ha [14]: 100%
- pest or weed control at 5 g/ha [14]: 100%
- pest or weed control at 80 g/ha [15]: 90%
- pest or weed control at 320 g/ha [15]: 100%
- pest or weed control at 20 g/ha [16]: 90%
- pest or weed control at 80 g/ha [16]: 100%
- pest or weed control at 320 g/ha [16]: 100%
- pest or weed control at 5 g/ha [17]: 80%
- pest or weed control at 20 g/ha [17]: 90%
- pest or weed control at 80 g/ha [17]: 100%
- pest or weed control at 20 g/ha [18]: 90%
- pest or weed control at 80 g/ha [18]: 100%
- pest or weed control at 320 g/ha [18]: 100%
- pest or weed control at 320 g/ha [19]: 100%
- pest or weed control at 80 g/ha [20]: 100%
- pest or weed control at 320 g/ha [20, 25]: 100%
- pest or weed control at 20 g/ha [21]: 90%
- pest or weed control at 80 g/ha [21]: 100%
- pest or weed control at 80 g/ha [22]: 80%
- pest or weed control at 20 g/ha [23]: 100%
- pest or weed control at 80 g/ha [23]: 100%
- pest or weed control at 320 g/ha [23]: 100%
